Here are results for three molecules from paper PMC5902437, “Structural studies on radiopharmaceutical DOTA-minigastrin analogue (CP04) complexes and their interaction with CCK2 receptor” (EJNMMI Research, 2018).

One assay has as its target T1, human CCK-2R (Homo sapiens, UniProt P32239).
T1 construct: expressed in transfected cells; host or cells: A431 human epidermoid carcinoma cells, stably transfected (gift of Prof. Luigi Aloj)
T1 sequence (P32239 1-447): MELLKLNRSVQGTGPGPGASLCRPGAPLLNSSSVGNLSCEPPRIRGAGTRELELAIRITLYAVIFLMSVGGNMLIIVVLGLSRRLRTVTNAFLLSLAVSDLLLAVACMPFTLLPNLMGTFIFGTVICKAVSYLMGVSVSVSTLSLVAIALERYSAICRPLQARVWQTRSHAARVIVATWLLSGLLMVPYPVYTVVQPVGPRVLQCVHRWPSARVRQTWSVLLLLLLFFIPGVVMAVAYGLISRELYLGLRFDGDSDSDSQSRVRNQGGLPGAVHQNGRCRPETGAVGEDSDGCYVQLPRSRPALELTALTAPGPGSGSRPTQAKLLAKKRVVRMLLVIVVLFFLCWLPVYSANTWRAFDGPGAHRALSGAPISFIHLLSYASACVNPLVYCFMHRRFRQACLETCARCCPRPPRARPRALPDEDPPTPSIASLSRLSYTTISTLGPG
The experiment in a line: Competition binding assay with [^90Y]Y-CP04 as competitive radioligand in A431-CCK2R(+) cells. The note with it: 0.5 mln per well, radioligand [^90Y]Y-CP04 0.24 pmol per well, 1 h at 37 °C, competitor 10^-6–10^-13 M, cell-associated radioactivity by gamma counter, mean ± SD, n = 3 experiments in triplicate, read-out: apparent 50% inhibitory concentration (IC50) for hCCK-2R. As to the method:
The A431 human epidermoid carcinoma cell line stably transfected with the human CCK2R (A431-CCK2R(+)) and mock transfected with an empty vector alone (A431-CCK2R(−)) were kindly provided by Prof. Luigi Aloj.
The cells were cultured in Dulbecco’s modified Eagle’s medium (DMEM) supplemented with 10% of heat-inactivated fetal bovine serum and antibiotics (penicillin 100 U/mL and streptomycin 100 μg/mL) and cultivated at 37 °C in 5% CO2.
The binding affinity (the apparent 50% inhibitory concentration (IC50)) of [^natGa]Ga-CP04 and [^natLu]Lu-CP04 complexes for CCK2 receptor was determined in A431-CCK2R(+) cell line using [^90Y]Y-CP04 as a competitive radioligand according to the method used by Roosenburg et al.. [^90Y]Y-CP04 was obtained with a molar activity of 2.05 GBq/μmol calculated at the time of experiment and 98% radiochemical purity as determined by radio HPLC method. Human epidermoid carcinoma (A431-CCK2(+)) cells were subcultured overnight in 12-well plates in concentration of 0.5 mln per well. Before the experiments, the cells were washed with DMEM medium and then [^90Y]Y-labeled CP04 (2.05 GBq/μmol) was added to the cells in amount of 0.24 pmol per well (ca. 80,000 cpm) and incubated for 1 h at 37 °C with increasing concentrations (10^−6–10^−13 M) of the Ga and Lu complexes of CP04 peptide. […]

For a further assay, the system named is CCK-2R. The note with it: literature SAR of CCK/gastrin derivatives; cited from earlier work. The source says: Table 3 SAR data from CCK/gastrin derivatives and their correspondence to our model | column: SAR data from CCK/gastrin derivatives

Take `CSCC[C@H](NC(=O)[C@H](Cc1c[nH]c2ccccc12)NC(=O)CNC(=O)[C@H](Cc1ccc(O)cc1)NC(=O)[C@H](C)NC(=O)[C@@H](CCC(=O)O)NC(=O)[C@@H](CCC(=O)O)NC(=O)[C@@H](CCC(=O)O)NC(=O)[C@@H](CCC(=O)O)NC(=O)[C@@H](CCC(=O)O)NC(=O)[C@@H](CCC(=O)O)NC(=O)CN1CCN(CC(=O)O)CCN(CC(=O)O)CCN(CC(=O)O)CC1)C(=O)N[C@@H](CC(=O)O)C(=O)N[C@@H](Cc1ccccc1)C(N)=O` [[^natGa]Ga-CP04, metal not drawn]: on human CCK-2R, the IC50 was 1.15 ± 0.39 nM.
With `CSCC[C@H](NC(=O)[C@H](Cc1c[nH]c2ccccc12)NC(=O)CNC(=O)[C@H](Cc1ccc(O)cc1)NC(=O)[C@H](C)NC(=O)[C@@H](CCC(=O)O)NC(=O)[C@@H](CCC(=O)O)NC(=O)[C@@H](CCC(=O)O)NC(=O)[C@@H](CCC(=O)O)NC(=O)[C@@H](CCC(=O)O)NC(=O)[C@@H](CCC(=O)O)NC(=O)CN1CCN(CC(=O)O)CCN(CC(=O)O)CCN(CC(=O)O)CC1)C(=O)N[C@@H](CC(=O)O)C(=O)N[C@@H](Cc1ccccc1)C(N)=O` [[^natLu]Lu-CP04, metal not drawn], the IC50 on human CCK-2R is 1.02 ± 0.28 nM.
“H-Trp-Met-Asp-Phe-NH2 [CCK-4, C-terminal tetrapeptide of CCK]”: the “binding to the receptor (SAR data in words)” value in the assay on CCK-2R is 1. C-terminal sequence in cholecystokinins and gastrins is a condition necessary and sufficient for high affinity towards the receptor 2. Even a fragment as small as a tetrapeptide H-Trp-Met-Asp-Phe-NH2 (CCK-4) exhibits relatively good binding.
